Among the data in paper PMC6100543, “Parthenolide Inhibits STAT3 Signaling by Covalently Targeting Janus Kinases” (Molecules : A Journal of Synthetic Chemistry and Natural …, 2018) are IC50 values, retold here.

Broadly, the IC50 is the midpoint of a concentration-inhibition curve. Low readings indicate inhibition by little substance, high ones a need for much substance.

In this experiment the target is T1, JAK2 (Mus musculus, UniProt Q62120).
T1 construct: JAK2-FLAG, overexpressed in HEK293 and immunoprecipitated
T1 sequence (Q62120 whole entry): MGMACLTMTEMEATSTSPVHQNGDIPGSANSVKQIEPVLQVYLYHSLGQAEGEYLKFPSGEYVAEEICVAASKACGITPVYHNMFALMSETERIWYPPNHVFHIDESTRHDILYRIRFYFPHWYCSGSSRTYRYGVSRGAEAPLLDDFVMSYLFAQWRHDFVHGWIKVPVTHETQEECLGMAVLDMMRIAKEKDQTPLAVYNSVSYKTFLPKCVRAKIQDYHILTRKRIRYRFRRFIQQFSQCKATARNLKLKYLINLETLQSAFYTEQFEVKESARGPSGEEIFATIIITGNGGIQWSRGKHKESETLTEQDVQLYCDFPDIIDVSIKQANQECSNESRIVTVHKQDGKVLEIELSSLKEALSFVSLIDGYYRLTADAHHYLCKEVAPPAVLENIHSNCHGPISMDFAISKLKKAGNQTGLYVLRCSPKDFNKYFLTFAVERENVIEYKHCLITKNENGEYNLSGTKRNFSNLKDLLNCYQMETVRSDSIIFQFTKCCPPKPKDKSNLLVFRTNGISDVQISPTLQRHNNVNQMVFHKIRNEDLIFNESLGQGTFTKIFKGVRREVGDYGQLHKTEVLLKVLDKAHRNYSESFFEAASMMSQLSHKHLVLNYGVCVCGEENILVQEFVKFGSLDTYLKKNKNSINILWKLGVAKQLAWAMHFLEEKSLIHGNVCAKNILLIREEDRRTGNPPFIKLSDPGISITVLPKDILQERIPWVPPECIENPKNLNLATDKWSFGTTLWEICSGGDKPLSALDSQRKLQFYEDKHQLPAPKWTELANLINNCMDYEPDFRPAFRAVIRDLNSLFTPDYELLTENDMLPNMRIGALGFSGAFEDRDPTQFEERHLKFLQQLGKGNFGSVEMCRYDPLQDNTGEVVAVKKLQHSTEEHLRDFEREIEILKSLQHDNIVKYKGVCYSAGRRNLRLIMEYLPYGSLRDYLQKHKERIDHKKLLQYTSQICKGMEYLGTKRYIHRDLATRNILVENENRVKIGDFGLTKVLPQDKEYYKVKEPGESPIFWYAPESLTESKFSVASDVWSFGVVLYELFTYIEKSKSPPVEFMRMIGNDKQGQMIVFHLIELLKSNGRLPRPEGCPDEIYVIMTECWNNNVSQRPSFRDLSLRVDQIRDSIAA
As to the kind of experiment: in vitro kinase assay with immunoprecipitated JAK2-FLAG; LC-MS/MS of PN-modified tryptic peptides. It counts as biochemical.

For `C=C1C(=O)O[C@H]2[C@H]1CC/C(C)=C/CC[C@@]1(C)O[C@@H]21` [PN, parthenolide], the 50% inhibitory concentration (IC50) came out at 3.94 µM.
